Data as given in the METLIN SMRT retention time set (Domingo-Almenara et al. 2019).

Experiment: gradient 5% acetonitrile 3 min, to 50% in 2 min, to 85% in 15 min, held 3 min, 100 µL/min
Conditions: column: Zorbax Extend-C18 2.1 x 50 mm; eluents: water / acetonitrile, 0.1% formic acid
How it was run: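 Retention time was recorded from adduct peaks, which were picked computationally and each inspected manually. Pure standards ran in mixtures of ~100 molecules on HPLC coupled to a quadrupole time-of-flight mass spectrometer, in positive and negative ionization mode, through a Zorbax Extend-C18 column (2.1 × 50 mm, 1.8 μm) at 100 μL/min. Eluents were water and acetonitrile, each with 0.1% formic acid.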

SMILES | RP-LC retention time [s]
CCn1cc(CCNS(=O)(=O)c2cccc(C#N)c2)c2cccnc21 | 733
CN1CCn2ccnc2C12CCN(C(=O)Nc1ccc(Cl)cc1C(F)(F)F)CC2 | 650
Cc1nc2cc(-c3noc(CNC(=O)c4cccs4)n3)ccc2o1 | 747
CC(C)(C)c1cc(C(=O)Nc2ccccc2F)nc2ccnn12 | 1380
CNC(=O)c1c(C)nn(-c2ccccc2)c1-n1cccc1 | 761
COc1ccc(F)cc1S(=O)(=O)N1C[C@@H](F)C[C@H]1C(=O)N1CCCCC1 | 769
CC1Oc2ccccc2OC1C(=O)NCCn1nc(-c2ccco2)ccc1=O (stereo unspecified) | 722
CN(C)C[C@@H]1CN(c2ncccn2)C[C@H]1NS(=O)(=O)c1ccc(C#N)cc1 | 589
CC(=O)c1cccc(NC(=O)Cc2csc3nc(-c4ccccc4)cn23)c1 | 729
O=C1NCCCn2cc(S(=O)(=O)NCc3ccccc3Cl)cc21 | 686
COC(=O)C1C(c2ccccc2)=NN(c2ccccc2)C1C(=O)OC (stereo unspecified) | 1090
O=C(c1ccc2ccnc(N3CCN(c4ccc(Cl)cc4)CC3)c2c1)N1CCC2(CC1)OCCO2 | 791
O=C(NCc1ccc2c(c1)OCO2)C1CCCN(C(=O)c2cc(-c3ccncc3)n[nH]2)C1 (stereo unspecified) | 599
CCS(=O)(=O)c1ccc(-c2ccc(NS(=O)(=O)c3ccc(Cl)s3)cc2)nn1 | 810
Cc1ccc(-c2noc(CN3N=NC4C(=O)N(c5ccccc5)C(=O)C43)n2)cc1C (stereo unspecified) | 1020
O=C(c1cc2ccccc2[nH]1)N1CCOCC1 | 713
Cc1ccc(-c2nc(-c3cccc(-c4ccnn4C)c3)no2)cc1 | 1210
Cc1cnc(-c2ccccc2)n1CCNS(=O)(=O)c1ccccc1 | 629
Cc1noc(-c2ccc(OC3CN(C(=O)NC4CCCC4)C3)cc2)n1 | 801
Cc1nc(-c2ccc(OC3CCN(C(=O)NC4CCCCC4)C3)cc2)no1 (stereo unspecified) | 845
O=C(c1ccccc1F)N1CCN(C(=O)c2nnn3c2COC(c2ccc(Cl)cc2)C3)CC1 (stereo unspecified) | 914
CC(C)CCN1N=C(C(=O)N2CCOCC2)S(=O)(=O)c2ccc(Cl)cc21 | 957
COC(=O)c1ccccc1Nc1c(-c2ccccc2)nc2cnc(Br)cn12 | 1090
COC(=O)CNC(=O)N1CCN(c2nc3ccccc3n(Cc3ccccc3)c2=O)CC1 | 779

Next, values leading:

RP-LC retention time [s] | SMILES
991 | CCN(CC)S(=O)(=O)c1cc(-c2nnc(-c3ccc(OC)c(OC)c3)o2)ccc1C
727 | Cc1ccc(NC(=O)C2(C)Oc3cccnc3NC2=O)c(C)c1 (stereo unspecified)
953 | Cc1ccc(NC(=O)CN2C(=O)CCCc3cc(S(=O)(=O)N4CCCCC4)ccc32)cc1F
968 | O=C(Cn1cccc(-c2nc(-c3ccc(Br)cc3)no2)c1=O)Nc1ccccc1
955 | Cc1ccc2[nH]cc(CCNC(=O)COc3ccc(Cl)cc3)c2c1
600 | COc1ccc(NC(=O)CN2CCc3[nH]c4c(C)cc(F)cc4c(=O)c3C2)cc1
692 | COc1ccc(N(Cc2nnc3n2CCCCC3)C(=O)Nc2ccccc2)cc1OC
1140 | COc1cc(Cl)ccc1-c1nc(-c2ccc3oc(C)nc3c2)no1
603 | COCc1cc(=O)n(CC(=O)NCc2ccc(F)cc2F)c(N)n1
686 | COc1ccc(S(=O)(=O)Nc2ccc3oc(-c4ccccc4OC)cc(=O)c3c2)cc1
1150 | CCn1c(=O)c(C)nc2cc(-c3noc(-c4ccc(F)c(F)c4)n3)ccc21
1130 | CCc1noc(NC(C)=O)c1-c1ccc(C)c(S(=O)(=O)N2CCN(c3cc(C)ccc3C)CC2)c1
